Reference: patent US20090291919A1, “Compositions and Methods for Treating or Preventing Ophthalmic Light Toxicity” (University of Florida Research Foundation, Inc., priority 2006, published 2009)
“Also recorded” adds a separate entry of the source.

Legend:
[1] = Absorption of the compound by itself in the visible spectrum
Description: (§1) To test whether this compound associates with wild-type (WT) opsin to form pigment, it was added to opsin solution in vitro.

[2] = system: purified WT opsin; assay: Opsin regeneration: pigment (rhodopsin) formation with 11-cis-retinal in presence of compound; settings: for inhibition of pigment formation of opsin with 11-cis-retinal / of binding of 11-cis-retinal to opsin: in vitro, result in words
Description: In a typical competition assay of the invention, a compound is sought that will tie up the retinal binding pocket of the opsin protein. Thus, the assay seeks to identify a non-retinoid compound (one that will not be tightly regulated by the retina as to amount entering rod cells) that competes with 11-cis-retinal. Over time this will slow the rate of formation of rhodopsin relative to the rate when 11-cis-retinal alone is present. In one embodiment, the assay is conducted in the presence of 11-cis-retinal, and the rate of formation of rhodopsin is measured as a way of determining competition for the retinal binding pocket, for example, by determining the rate of increase in the 500 nm peak characteristic for rhodopsin. No antibodies for rhodopsin are required for this assay.

[3] = system: purified wt (wild-type) opsin; assay: Pigment formation of compound alone with opsin (500 nm absorbing pigment); settings: compound added to opsin without 11-cis-retinal
Description: as §1

Row | Structure (SMILES) | absorption in the visible spectrum [1] | extent of inhibition of regeneration compared with β-ionone ([2]; SN10011 2 and 5 mM vs β-ionone) | inhibition of pigment formation of opsin with 11-cis-retinal / of binding of 11-cis-retinal to opsin [2] | inhibition of pigment formation of opsin with 11-cis-retinal / of binding of 11-cis-retinal to opsin ([2]; listed as SN 10011) | formation of a 500 nm absorbing pigment with opsin [3]
1 | CC(=O)c1c(C)n[nH]c1C [SN10011, 1-(3,5-dimethyl-1H-pyrazol-4-yl)ethanone] | did not show any absorption in the visible spectrum; also recorded: does not absorb in the visible spectrum | much lower | reversibly inhibits binding of 11-cis-retinal; also recorded: significant effect on inhibition of pigment formation; also recorded: inhibited | inhibits the binding of 11-cis-retinal to opsin in vitro | No pigment was formed; also recorded: no 500 nm absorbing pigment was generated
2 | CC(=O)/C=C/C1=C(C)CCCC1(C)C [β-ionone, reference compound] |  |  | inhibit binding of retinal to the site; also recorded: inhibited opsin regeneration in a dose dependent manner |  | does not form a light absorbing pigment; also recorded: does not itself form a 500 nm absorbing pigment; also recorded: no 500 nm absorbing pigment was formed
